One assay deals with p-eIF2α. The assay can be described thus: Cellular PERK inhibition: p-eIF2a TR-FRET in tunicamycin-treated HEK293-EGFP-eIF2a cells. In kind it is cell-based. The method, then:
Methods used to evaluate in vitro cellular PERK inhibition are described and published elsewhere. In brief, stableHEK293 cells were created using lentiviral particles harboring a GFP-eIF2a expression vector. Transfectants were selected by puromycin and enriched using fluorescent cell sorting based on GFP expression. HEK293-EGFP-eIF2a cells were plated at 5000 cells/well in 384-well assay plates and incubated overnight. The following day, pyrrolopyrimidine analogs were added to wells using an Echo acoustic dispenser and incubated for 30 min. ER stress was induced by the addition of tunicamycin to the wells at […] for 2 h. Cells were lysed and peIF2a was evaluated using a TR-FRET system, as described above.
(§1) The PERK activity of analog I was evaluated using cell-free biochemical assays. In these assays, PERK phosphorylation of eIF2a was assessed using a FRET-based labelled protein assay. Compounds were then evaluated for cellular activity by quantifying inhibition of eIF2a phosphorylation in HEK293 cells treated with the ER inducer tunicamycin [7].
Background: TR-FRET usually uses a lanthanide donor and a delayed reading to cut background.

In another assay the target is T1, PERK (Homo sapiens, UniProt Q9NZJ5).
T1 sequence (Q9NZJ5 30-1116): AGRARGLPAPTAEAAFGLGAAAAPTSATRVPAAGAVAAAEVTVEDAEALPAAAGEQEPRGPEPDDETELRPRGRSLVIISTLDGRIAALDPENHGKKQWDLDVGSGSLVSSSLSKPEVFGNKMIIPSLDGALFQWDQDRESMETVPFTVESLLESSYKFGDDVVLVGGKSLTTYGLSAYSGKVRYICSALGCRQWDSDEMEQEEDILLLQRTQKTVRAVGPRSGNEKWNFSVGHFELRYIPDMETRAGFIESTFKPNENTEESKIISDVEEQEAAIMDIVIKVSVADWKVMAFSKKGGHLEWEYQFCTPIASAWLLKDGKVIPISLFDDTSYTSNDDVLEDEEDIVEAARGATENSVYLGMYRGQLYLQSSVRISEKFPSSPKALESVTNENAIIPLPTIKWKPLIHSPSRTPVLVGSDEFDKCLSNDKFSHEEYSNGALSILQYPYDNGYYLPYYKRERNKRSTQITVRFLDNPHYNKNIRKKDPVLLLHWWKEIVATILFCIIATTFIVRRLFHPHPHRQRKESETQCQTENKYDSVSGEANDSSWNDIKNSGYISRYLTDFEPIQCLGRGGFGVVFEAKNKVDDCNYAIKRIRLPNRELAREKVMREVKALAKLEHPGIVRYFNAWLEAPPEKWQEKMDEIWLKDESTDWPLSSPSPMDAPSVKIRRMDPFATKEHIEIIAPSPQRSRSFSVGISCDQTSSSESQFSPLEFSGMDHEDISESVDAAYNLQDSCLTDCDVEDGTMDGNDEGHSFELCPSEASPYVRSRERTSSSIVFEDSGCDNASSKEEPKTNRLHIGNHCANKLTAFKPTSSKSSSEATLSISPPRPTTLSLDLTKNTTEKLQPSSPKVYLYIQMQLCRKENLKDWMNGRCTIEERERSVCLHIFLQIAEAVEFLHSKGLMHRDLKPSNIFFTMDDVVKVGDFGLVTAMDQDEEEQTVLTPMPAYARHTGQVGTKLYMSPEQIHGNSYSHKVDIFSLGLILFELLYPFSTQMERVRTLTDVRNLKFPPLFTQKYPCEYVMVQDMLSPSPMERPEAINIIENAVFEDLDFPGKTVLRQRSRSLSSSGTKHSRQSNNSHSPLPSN
As to the kind of experiment: PERK biochemical LanthaScreen TR-FRET assay (GFP-eIF2a phosphorylation). The method, then: Methods used to evaluate biochemical PERK activity are described and published elsewhere. In brief, biochemical PERK activity is evaluated using a LanthaScreenTM ([…]) TR-FRET assay to detect phosphorylation of a GFP-tagged eIF2a substrate (ThermoFisher). Excitation at […] of a terbium chelate donor fluorophore in an eIF2a antibody results in energy transfer to GFP acceptor fluorophore upon eIF2a phosphorylation by PERK. Reaction buffer was composed of 50 mM HEPES (pH 7.4), 10 mM MgCl2, 1 mM EGTA and 0.01% (v/v) BrijTM-35. Reactions were initiated by the addition of substrate and ATP, followed by incubation for 1 h at RT prior to addition of EDTA and the anti-peIF2a antibody. FRET was measured by an EnVision Plate Reader (PerkinElmer). Data were plotted as percent inhibition along a 10-point 3-fold dilution series of inhibitors. IC50 values were calculated using 4-parameter logistical fitting in XLFit.
as §1

Setting [1] is: Homo sapiens, HEK293 cells, tunicamycin-induced ER stress, read-out: p-eIF2α IC50.
Where [2] appears, read: cell-free TR-FRET, GFP-eIF2a substrate, read-out: PERK IC50.
The mark [3] stands for this setting: bound stated, read-out: cellular potency.
Where [4] appears, read: bound stated, read-out: biochemical potency.

Like-named read-outs stand apart in the source and are kept apart here. Bounds are passed on as bounds.

For `Cc1cc(NC(=O)[C@@H](O)c2cccc(F)c2)ccc1-c1cn(C)c2ncnc(N)c12` [Compound 12, (S)-N-(4-(4-amino-7-methyl-7H-pyrrolo[2,3-d]pyrimidin-5-yl)-3-methylphenyl) -2-(3-fluorophenyl) -2-hydroxyacetamide], the figures for the IC50 in the assay with p-eIF2α (setting [1]) and at PERK (setting [2]) were 57 nM and 7.8 nM, respectively.
The corresponding values for `Cc1cc(NC(=O)[C@H](O)c2ccccc2)ccc1-c1cn(C)c2ncnc(N)c12` [Compound 13] are 23 nM and 1.8 nM.
For `Cc1cc(NC(=O)Cc2ccccc2)ccc1-c1cn(C)c2ncnc(N)c12` [Compound 14] the same measures were 41 nM and 5.2 nM.
For `Cc1cc(NC(=O)CCc2ccccc2)ccc1-c1cn(C)c2ncnc(N)c12` [Compound 15], the IC50 with p-eIF2α (setting [1]) was 1930 nM; at PERK (setting [2]), 126 nM.
As for `Cc1cc(NC(=O)c2ccccc2)ccc1-c1cn(C)c2ncnc(N)c12` [Compound 16], the IC50 in the assay with p-eIF2α (setting [1]) came out at 3960 nM; at PERK (setting [2]), 168 nM.
For `Cc1cc(NC(=O)C(F)(F)c2ccccc2)ccc1-c1cn(C)c2ncnc(N)c12` [Compound 17] the same measures were 532 nM and 300 nM.
The corresponding values for `Cc1cc(NC(=O)Oc2ccccc2)ccc1-c1cn(C)c2ncnc(N)c12` [Compound 18] are greater than 10000 nM and 3980 nM.
The corresponding values for `Cc1cc(NC(=O)Nc2ccccc2)ccc1-c1cn(C)c2ncnc(N)c12` [Compound 19] are 211 nM and 21 nM.
For `Cc1cc(NC(=O)N(C)c2ccccc2)ccc1-c1cn(C)c2ncnc(N)c12` [Compound 20], the IC50 was found to be 1750 nM with p-eIF2α (setting [1]) and 108 nM on PERK (setting [2]).
The corresponding values for `CO[C@@H](C(=O)Nc1ccc(-c2cn(C)c3ncnc(N)c23)c(C)c1)c1ccccc1` [Compound 21] are 174 nM and 14 nM.
For `Cc1cc(NC(=O)C(C)(O)c2ccccc2)ccc1-c1cn(C)c2ncnc(N)c12` (stereo not shown) [Compound 22] the same measures were 184 nM and 56 nM.
On to `Cc1cc(NC(=O)[C@H](N)c2ccccc2)ccc1-c1cn(C)c2ncnc(N)c12` [Compound 23], for which the results for the IC50 in the assay with p-eIF2α (setting [1]) and at PERK (setting [2]) were 581 nM and 33 nM, respectively.
For `Cc1nc(N)c2c(-c3ccc(NC(=O)[C@H](O)c4ccccc4F)cc3C)cn(C)c2n1` [Compound 25] the same measures were 303 nM and 102 nM.
For `Cc1nc(N)c2c(-c3ccc(NC(=O)C(O)c4ccccc4C(F)(F)F)cc3C)cn(C)c2n1` (stereo not shown) [Compound 27] the same measures were 2050 nM and 343 nM.
The corresponding values for `Cc1nc(N)c2c(-c3ccc(NC(=O)[C@H](O)c4ccccc4Cl)cc3C)cn(C)c2n1` [Compound 29] are 713 nM and 107 nM.
With `Cc1cccc([C@@H](O)C(=O)Nc2ccc(-c3cn(C)c4nc(C)nc(N)c34)c(C)c2)c1` [Compound 30], the IC50 in the assay on p-eIF2α (setting [1]) stood at 83 nM; at PERK (setting [2]), 14 nM.
The corresponding values for `Cc1nc(N)c2c(-c3ccc(NC(=O)C(O)c4ccccc4C)cc3C)cn(C)c2n1` (stereo not shown) [Compound 31] are 122 nM and 26 nM.
For `C#Cc1cccc([C@@H](O)C(=O)Nc2ccc(-c3cn(C)c4nc(C)nc(N)c34)c(C)c2)c1` [Compound 32] the same measures were 7.8 nM and 3 nM.
Regarding `Cc1nc(N)c2c(-c3ccc(NC(=O)[C@H](O)c4cccc(Br)c4)cc3C)cn(C)c2n1` [Compound 33], the IC50 amounted to 14 nM with p-eIF2α (setting [1]) and 3 nM on PERK (setting [2]).
The corresponding values for `Cc1nc(N)c2c(-c3ccc(NC(=O)[C@H](O)c4cccc(C(F)F)c4)cc3C)cn(C)c2n1` [Compound 34] are 21 nM and 5.9 nM.
Consider `Cc1nc(N)c2c(-c3ccc(NC(=O)[C@H](O)c4cccc(C5CC5)c4)cc3C)cn(C)c2n1` [Compound 35], for which the IC50 with p-eIF2α (setting [1]) came to 17 nM; at PERK (setting [2]) it was 5.9 nM.
With `Cc1nc(N)c2c(-c3ccc(NC(=O)[C@H](O)c4cccc(C#N)c4)cc3C)cn(C)c2n1` [Compound 36], the IC50 is 325 nM with p-eIF2α (setting [1]) and 8 nM on PERK (setting [2]).
Take `Cc1nc(N)c2c(-c3ccc(NC(=O)[C@H](O)c4cccc(S(C)(=O)=O)c4)cc3C)cn(C)c2n1` [Compound 37]: the IC50 was greater than 10000 nM in the assay with p-eIF2α (setting [1]) and greater than 1000 nM at PERK (setting [2]).
Regarding `Cc1nc(N)c2c(-c3ccc(NC(=O)[C@H](O)c4cc(F)cc(Cl)c4)cc3C)cn(C)c2n1` [Compound 40], the IC50 in the assay on p-eIF2α (setting [1]) amounted to 8.5 nM; at PERK (setting [2]) it was 2.9 nM.
For `Cc1nc(N)c2c(-c3ccc(NC(=O)[C@H](O)c4cc(F)cc(C#N)c4)cc3C)cn(C)c2n1` [Compound 42] the same measures were 32 nM and 4.2 nM.
For `Cc1nc(N)c2c(-c3ccc(NC(=O)[C@H](O)c4cncc(F)c4)cc3C)cn(C)c2n1` [Compound 43] the same measures were 562 nM and 52 nM.
On to `Cc1nc(N)c2c(-c3ccc(NC(=O)[C@H](O)c4cncc(Cl)c4)cc3C)cn(C)c2n1` [Compound 44], for which the figures for the IC50 with p-eIF2α (setting [1]) and on PERK (setting [2]) were 129 nM and 17 nM, respectively.
For `Cc1nc(N)c2c(-c3ccc(NC(=O)[C@H](O)c4cncc(C(F)(F)F)c4)cc3C)cn(C)c2n1` [Compound 45] the same measures were 165 nM and 19 nM.
For the molecule `Cc1nc(N)c2c(-c3ccc(NC(=O)[C@H](O)c4cccc(F)c4)cc3F)cn(C)c2n1` [Compound 46], the IC50 amounted to 41 nM in the assay with p-eIF2α (setting [1]) and 2.2 nM at PERK (setting [2]).
Turning to `Cc1nc(N)c2c(-c3ccc(NC(=O)[C@H](O)c4cccc(C(F)(F)F)c4)cc3F)cn(C)c2n1` [Compound 47, (R)-N-(4-(4-amino-2,7-dimethyl-7H-pyrrolo[2,3-d]pyrimidin-5-yl)-3-fluorophenyl)-2-hydroxy-2-(3-(trifluoromethyl)phenyl)acetamide], the IC50 was 11 nM with p-eIF2α (setting [1]), less than 15 nM in the assay with p-eIF2α (setting [3]), less than 5 nM on PERK (setting [4]) and 5.1 nM on PERK (setting [2]).
For `Cc1cccc([C@@H](O)C(=O)Nc2ccc(-c3cn(C)c4nc(C)nc(N)c34)c(F)c2)c1` [Compound 49], the IC50 came out at 17 nM with p-eIF2α (setting [1]) and 1.1 nM on PERK (setting [2]).
The corresponding values for `CCc1cccc([C@@H](O)C(=O)Nc2ccc(-c3cn(C)c4nc(C)nc(N)c34)c(F)c2)c1` [Compound 50] are 25 nM and 0.9 nM.
The corresponding values for `Cc1nc(N)c2c(-c3ccc(NC(=O)[C@H](O)c4cc(F)cc(C(F)(F)F)c4)cc3F)cn(C)c2n1` [Compound 51] are 62 nM and 2.7 nM.
Turning to `Cc1cc(F)cc([C@@H](O)C(=O)Nc2ccc(-c3cn(C)c4nc(C)nc(N)c34)c(F)c2)c1` [Compound 52], the IC50 with p-eIF2α (setting [1]) was 11 nM; with p-eIF2α (setting [3]), less than 15 nM; on PERK (setting [4]), less than 5 nM; on PERK (setting [2]), 1.1 nM.
As to `Cc1nc(N)c2c(-c3ccc(NC(=O)[C@H](O)c4cccc(F)c4)cc3Cl)cn(C)c2n1` [Compound 53], the IC50 stood at 56 nM in the assay on p-eIF2α (setting [1]) and 17 nM at PERK (setting [2]).
In the case of `Cc1nc(N)c2c(-c3ccc(NC(=O)[C@H](O)c4cccc(C(F)(F)F)c4)cc3Cl)cn(C)c2n1` [Compound 54], the IC50 in the assay with p-eIF2α (setting [1]) was determined as 21 nM; on PERK (setting [2]) it was 2.7 nM.

The record behind these values is publication PMC9611727, “Optimization of a Novel Mandelamide-Derived Pyrrolopyrimidine Series of PERK Inhibitors” (Pharmaceutics, 2022).
